# Where “and” joins values, the source holds several entries; their conditions need not be identical. Identical values can stand only once. Entries after “also recorded” stand apart in the source; their conditions may differ.
# Key:
# [1] = system: opiate receptors; assay: Irreversible opiate receptor binding/blocking (general statements)
# Method: (§1) In brief, brain membranes were prepared and triplicate samples incubated with [^3 H] labelled ligands and designated drugs for 30 minutes at 25° C., followed by filtration over Whatman GF/B filters. […] Specific binding is defined as the difference in binding in the presence and absence of levallorphan (1 uM). […] Each tissue wash included incubation for 10 min. at 37° C., centrifugation and resuspension. Irreversibility experiments included four washes before binding assays were performed, unless otherwise stated.
# [2] = system: rats; format: in vivo, rat; settings: 50 mg/kg intravenously; for Amounts eaten, individual animals / Amounts eaten, Mean ± SEM: 1 hour free access to food, 24 hours after drug; for Amounts eaten, Mean ± SEM: saline 4.78 ± 0.42, significant at the p 0.05 level (ANOVA)
# Method: They were then food deprived for 24 hours but allowed free access to water. Five rats received saline, four received naloxone and three naloxazone. […] The animals were then given free access to food for 1 hour and their weight gain noted. Thus, eating was measured 24 hours after the administration of the drugs and after 24 hours of food deprivation.
# [3] = system: high affinity, or mu1, binding sites; settings: Pasternak et al.; Zhang and Pasternak; cited from earlier work
# [4] = system: opiate receptors; format: binding, rat; settings: for irreversible inhibition of [^3 H]D-ala^2 -D-leu^5 -enkephalin binding (in words): 2 μM; for Change in Binding (Percent), [^3 H]D-ala^2 -D-leu^5 -enkephalin: compound 2 μM, 30 min 25° C., four washes, ligand 1 nM, mean ± s.e.m. of three experiments
# Method: as §1
# (§2) To determine which compounds did irreversibly bind to the receptor, membranes were incubated with the various drugs (2 μM) and then the free and reversibly bound drug washed away (Table 2).
# (§3) Rat brain membranes were prepared and incubated with the above drugs (2 μM) for 30 min at 25° C. and the tissue was then washed four times as described in the text to remove reversibly bound material. The results represent the means ±s.e.m. of three separate experiments utilizing [^3 H]D-ala^2 -D-leu^5 -enkephal in (1 nM) and [^3 H]dihydromorphine (0.8 nM). […] After 15 min the solution was added to tissue.
# [5] = Reaction of hydrazones to azines in solution; settings: acidic aqueous solutions; absolute ethanol or water/acetic acid (1%), 15 min
# [6] = system: prolactin release; assay: Prolactin release in vivo
# [7] = system: growth hormone release; assay: Growth hormone release in vivo; settings: for effect on growth hormone release (in words): in vivo
# [8] = system: rats; settings: cited from earlier work
# [9] = system: mice; assay: In vivo actions of naltrexone-oxymorphonazine (tailflick latencies); set-up: species or system mouse; settings: for Tailflick Latencies, After 20 min / Tailflick Latencies, After 40 min: 10 mg/kg s.c.; for Tailflick Latencies, Prior: baseline prior to 10 mg/kg s.c.
# Method: Groups of mice were injected subcutaneously with the stated drug and latencies in the tailflick test determined and compared to those obtained prior to testing. […] This compares with an analgesic rate of 100% of animals receiving oxymorphone HCl in other control experiments.
# [10] = molecular target: T1, opiate receptors (Rattus norvegicus, UniProt P33535); assay: biochemical; format: binding; settings: for inhibition at 2 µM: 0.5 h, compound 2 μM, 30 min 25° C., four washes, ligand 0.8 nM, mean ± s.e.m. of three experiments, read-out: Change in Binding (Percent), [^3 H]dihydromorphine
# T1 construct: Rat brain homogenates were prepared as described; from tissue; host or cells: rat brain homogenate / membranes
# T1 sequence (P33535 whole entry): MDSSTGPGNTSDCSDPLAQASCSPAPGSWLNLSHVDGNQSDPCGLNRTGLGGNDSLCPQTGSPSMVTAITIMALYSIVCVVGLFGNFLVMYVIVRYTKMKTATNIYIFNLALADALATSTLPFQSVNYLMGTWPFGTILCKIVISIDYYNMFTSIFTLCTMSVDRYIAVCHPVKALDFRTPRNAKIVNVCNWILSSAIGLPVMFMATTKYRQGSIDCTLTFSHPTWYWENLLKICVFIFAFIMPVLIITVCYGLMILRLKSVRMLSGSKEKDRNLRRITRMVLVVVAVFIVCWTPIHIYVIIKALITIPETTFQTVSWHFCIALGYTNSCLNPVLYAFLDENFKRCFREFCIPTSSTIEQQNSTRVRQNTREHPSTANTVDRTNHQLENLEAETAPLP
# Method: Results are from a single experiment which has been replicated three times.
# as §1, §2, §3
# After incubating membranes with the specified drug, the membranes were extensively washed and a binding assay with [^3 H]dihydromorphine performed.
# [11] = Duration of action; format: in vivo; settings: compared to conventional / currently available opiates
# [12] = molecular target: T1, opiate receptors; assay: biochemical; format: binding
# Method: as §1
# IC50 values were determined by least square fits of a log-probit curve. The results are the means ±s.e.m. of three IC50 values determined in separate experiments.
# [13] = system: opiate receptors; assay: Irreversible inhibition of ^3 H-DADL binding, 100 nM, two washes; set-up: species or system rat
# Method: (§4) Each wash consisted of centrifugation, incubation at 37° for 10 min and centrifugation again. […] Bindig was then performed with either ^3 H-D-ala^2 -D-leu^5 -enkephalin (DADL) or ^3 H-dihydromorphine (DHM) both at 1 nM. Specific binding was determined as that displaceable by levallorphan at 1000 nM. All values represent the means of triplicate samples ±S.E.M.
# [14] = molecular target: T1, opiate receptors; assay: Irreversible inhibition of ^3 H-DHM binding, 100 nM, two washes
# Method: as §4
# [15] = system: growth hormone release; settings: cited from earlier work
# [16] = system: prolactin release; settings: cited from earlier work
# [17] = currently available agents; cited from earlier work
smiles,measurement,setting,value
"C=CCN1CCC23c4c5ccc(O)c4OC2C(=NN)CCC3(O)C1C5 (centres unmarked) [Naloxazone, naloxazone]",dose for irreversible blockade of opiate receptor binding (naloxazone),[1]; high doses,2 µM
same,effect on feeding (in words),[2],significant effect as an appetite suppressant
same,"Amounts eaten, individual animals",[2],3.3 grams and 2.4 grams and 3.5 grams
same,"Amounts eaten, Mean ± SEM",[2],3.07 ± 0.34 grams
same,blocking opiate analgesia / effect on opiate-induced lethality (in words),[3],blocking opiate analgesia with little effect on other classes of binding sites or opiate-induced lethality
same,irreversible inhibition of [^3 H]D-ala^2 -D-leu^5 -enkephalin binding (in words),[4],neither naloxazone nor oxymorphazone irreversibly inhibited the binding
same,"Change in Binding (Percent), [^3 H]D-ala^2 -D-leu^5 -enkephalin",[4],+15 ± 5%
same,stability in solution: reaction to azine (in words),[5],no azine formation could be detected
same,"effect on basal levels of prolactin, naloxazone (in words)",[6]; basal levels,significant reduction in the basal levels of the drugs
same,depression of morphine-induced release of prolactin,[6]; in vivo,over 80%
same,effect on prolactin release (in words),[6]; in vivo,selectively lowering prolactin release
same,"effect on basal levels of growth hormone, naloxazone (in words)",[7]; basal levels,significant reduction in the basal levels of the drugs
same,effect on growth hormone release (in words),[7],actually increased; also recorded: without effecting growth hormone release elicited by morphine
"O=C1CC[C@@]2(O)[C@H]3Cc4ccc(O)c5c4[C@@]2(CCN3CC2CC2)[C@H]1O5 [Naltrexone, naltrexone]",removal of reversible ligand by washing (in words),[1]; two washes with incubation at 37° for 10 min,effectively removed
same,suppression of eating behavior (known),[8],effectively suppress eating behavior in rats
same,"Tailflick Latencies, After 20 min",[9],2.37 ± 0.31 s
same,"Tailflick Latencies, After 40 min",[9],2.59 ± 0.35 s
same,"Tailflick Latencies, Prior",[9],2.63 ± 0.27 s
"Oc1ccc2c3c1OC1C(=NN=C4CCC5(O)C6Cc7ccc(O)c8c7C5(CCN6CC5CC5)C4O8)CCC4(O)C(C2)N(CC2CC2)CCC314 (centres unmarked) [Naltrexonazine, naltrexonazine]",potency of irreversible block of opiate binding in vitro relative to corresponding hydrazone,[1]; azine vs corresponding hydrazone,20-40 fold
same,selectivity for mu1 class versus naloxone and naltrexone (in words),[1]; compared with naloxone and naltrexone,far more selective for the mu1 class of opiate binding sites
same,"Change in Binding (Percent), [^3 H]D-ala^2 -D-leu^5 -enkephalin",[4],-97 ± 3%
same,inhibition at 2 µM,[10],88 ± 12%
same,duration of action (in words),[11],in the order of days
same,duration of action (in words),[11]; listed as naltrexonazine,lasting far longer than conventional opiates
same,IC50,[12],1.16 nM
same,"Tailflick Latencies, After 20 min",[9],2.50 ± 0.36 s
same,"Tailflick Latencies, After 40 min",[9],2.74 ± 0.49 s
same,"Tailflick Latencies, Prior",[9],2.50 ± 0.34 s
same,^3 H-DADL Binding,"[13]; 30 min 25° C., DADL 1 nM, control 1800 ± 53 cpm, triplicate ± S.E.M.",653 ± 85 cpm
same,"^3 H-DADL Binding, change","[13]; vs control, 30 min",-65%
same,^3 H-DHM Binding,"[14]; 100 nM, 30 min 25° C., two washes, DHM 1 nM, control 3447 ± 273 cpm, triplicate ± S.E.M.",1183 ± 128 cpm
same,inhibition at 0.1 µM,"[14]; 0.5 h, read-out: ^3 H-DHM Binding, change",66%
"C=CCN1CC[C@]23c4c5ccc(O)c4O[C@H]2C(=O)CC[C@@]3(O)[C@H]1C5 [Naloxone, naloxone]",effect on feeding (in words),[2],inability of naloxone to effect feeding behavior
same,"Amounts eaten, individual animals",[2],4.1 grams and 5.3 grams and 4.4 grams and 3.7 grams
same,"Amounts eaten, Mean ± SEM",[2],4.38 ± 0.34 grams
same,suppression of eating behavior (known),[8],effectively suppress eating behavior in rats
same,"effect on basal levels of growth hormone, naloxone (in words)",[15],lowering of the basal levels of prolactin and growth hormone
same,effect on prolactin release (in words),[6]; in vivo,inhibits morphine's release of both hormones
same,"effect on basal levels of prolactin, naloxone (in words)",[16],lowering of the basal levels of prolactin and growth hormone
same,half-life (in words),[17],short half-life
same,effect on growth hormone release (in words),[7],inhibits morphine's release of both hormones
"NN=C1CCC2(O)C3Cc4ccc(O)c5c4C2(CCN3CC2CC2)C1O5 (centres unmarked) [Naltrexazone, naltrexazone]",irreversible inhibition of [^3 H]D-ala^2 -D-leu^5 -enkephalin binding (in words),[4],small amount of inhibition
same,"Change in Binding (Percent), [^3 H]D-ala^2 -D-leu^5 -enkephalin",[4],-17 ± 19%
same,stability in solution: reaction to azine (in words),[5],A trace amount of azine was present
same,irreversible inhibition of [^3 H]dihydromorphine binding (in words),"[10]; 2 μM, various concentrations in b75 (FIG. 2)",small amount of inhibition
same,inhibition at 2 µM,[10],31 ± 26%
same,IC50,[12],1.7 ± 0.2 nM
